# Assay results taken from patent publication US20250230193A1, “CYCLIC COMPOUND HAVING SELECTIVE KRAS INHIBITORY EFFECT ON HRAS AND NRAS” (CHUGAI SEIYAKU KABUSHIKI KAISHA, priority 2022, published 2025).
# *1 amine or outer side, *2 acyl side, *3 side chain or, on linkers, in order; H or OH if unused. Where a SMILES comes first, the peptide text is derived from it. Bridges are numbered along the chain shown (N, C = ends). [ ]: non-standard residue; d: D form. The star is where a group is joined. hPhe(3-Cl-4-CF3) = N[C@@H](CCc1ccc(C(F)(F)F)c(Cl)c1)C(=O)O; NPrPhe(4-CF3) = CCCN[C@@H](Cc1ccc(C(F)(F)F)cc1)C(=O)O; X29 = Cc1ccc(C[C@@H](C(=O)[*:2])N(CC2CCCC2)[*:1])cc1; NMeGly(cPent) = CN[C@H](C(=O)O)C1CCCC1; NMeD = CN[C@@H](CC(=O)O)C(=O)O; NMeL = CN[C@@H](CC(C)C)C(=O)O; N(Me)CH2CH2OMe = COCCN(C)*; Morpholide = C1CN(*)CCO1; Ac5c = NC1(C(=O)O)CCCC1; Ac4c = NC1(C(=O)O)CCC1; Sar = CNCC(=O)O
# Experiments:
# [1] = target: GDP-bound HRAS wild-type protein (Homo sapiens, UniProt P01112); experiment: Binding to HRAS by surface plasmon resonance (SPR), Single Cycle Kinetics; settings: SPR; for HRAS/KRAS (ratio of KD value with respect to HRAS to KD value with respect to KRAS): GDP-bound HRAS wild-type vs GDP-bound KRAS wild-type
# [2] = target: GDP-bound NRAS wild-type protein (Homo sapiens, UniProt P01111); experiment: Binding to NRAS by surface plasmon resonance (SPR), Single Cycle Kinetics; settings: SPR; for NRAS/KRAS (ratio of KD value with respect to NRAS to KD value with respect to KRAS): GDP-bound NRAS wild-type vs GDP-bound KRAS wild-type
# Sequence of GDP-bound NRAS wild-type protein (P01111 whole entry): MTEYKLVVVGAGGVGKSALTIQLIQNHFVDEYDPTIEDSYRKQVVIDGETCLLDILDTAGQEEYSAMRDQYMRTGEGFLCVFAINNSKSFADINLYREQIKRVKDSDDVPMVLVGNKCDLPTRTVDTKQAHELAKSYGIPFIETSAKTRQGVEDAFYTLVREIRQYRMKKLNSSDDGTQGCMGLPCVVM
# Sequence of GDP-bound HRAS wild-type protein (P01112 whole entry): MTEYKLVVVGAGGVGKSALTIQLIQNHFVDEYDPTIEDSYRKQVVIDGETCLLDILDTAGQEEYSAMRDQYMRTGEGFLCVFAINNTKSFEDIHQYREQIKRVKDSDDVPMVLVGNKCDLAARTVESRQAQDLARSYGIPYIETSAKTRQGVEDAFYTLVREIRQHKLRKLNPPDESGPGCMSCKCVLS
structure (smiles),measurement,setting,value
CCCN1C(=O)CN(C)C(=O)CN(C)C(=O)[C@H]([C@@H](C)CC)NC(=O)[C@H](CC(C)C)N(C)C(=O)C[C@@H](C(=O)N(C)CCOC)N(C)C(=O)[C@H](C2CCCC2)N(C)C(=O)C2(CCCC2)NC(=O)[C@@H]2CCCN2C(=O)[C@H](CCc2ccc(C(F)(F)F)c(Cl)c2)NC(=O)CN(C)C(=O)[C@@H]1Cc1ccc(C(F)(F)F)cc1 [PP0391] ([NMeL]I[Sar][Sar][NPrPhe(4-CF3)][Sar][hPhe(3-Cl-4-CF3)]P[Ac5c][NMeGly(cPent)][NMeD]-{N(Me)CH2CH2OMe}; lactam N-11),HRAS/KRAS (ratio of KD for GDP-bound HRAS wild-type to KD for KRAS),[1]; KD ratio HRAS/KRAS,B (a compound having 3 or more and less than 10 is denoted as B)
same,NRAS/KRAS (ratio of KD for GDP-bound NRAS wild-type to KD for KRAS),[2]; KD ratio NRAS/KRAS,B (a compound having 3 or more and less than 10 is denoted as B)
CCCN1C(=O)CN(C)C(=O)CN(C)C(=O)[C@H]([C@@H](C)CC)NC(=O)[C@H](CC(C)C)N(C)C(=O)C[C@@H](C(=O)N(C)C)NC(=O)[C@H](C2CCCC2)N(C)C(=O)C2(CCC2)NC(=O)[C@@H]2CCCN2C(=O)[C@H](CCc2ccc(C(F)(F)F)c(Cl)c2)NC(=O)CN(C)C(=O)[C@@H]1Cc1ccc(C(F)(F)F)cc1 [PP0356] ([NMeL]I[Sar][Sar][NPrPhe(4-CF3)][Sar][hPhe(3-Cl-4-CF3)]P[Ac4c][NMeGly(cPent)]D-NMe2; lactam N-11),HRAS/KRAS (ratio of KD for GDP-bound HRAS wild-type to KD for KRAS),[1]; KD ratio HRAS/KRAS,B (a compound having 3 or more and less than 10 is denoted as B)
same,NRAS/KRAS (ratio of KD for GDP-bound NRAS wild-type to KD for KRAS),[2]; KD ratio NRAS/KRAS,B (a compound having 3 or more and less than 10 is denoted as B)
CCC[C@@H]1C[C@H]2C(=O)NC3(CCC3)C(=O)N(C)[C@@H](C3CCCC3)C(=O)N(C)[C@H](C(=O)N(C)C)CC(=O)N(C)[C@@H](CC(C)C)C(=O)N[C@@H]([C@@H](C)CC)C(=O)N(C)CC(=O)N(C)[C@H]3C/C=C\CCN(C3=O)[C@@H](Cc3ccc(C)cc3)C(=O)N(C)CC(=O)N[C@@H](CCc3cc(F)c(C(F)(F)F)c(F)c3)C(=O)N2C1 [PP2231],HRAS/KRAS (ratio of KD value with respect to HRAS to KD value with respect to KRAS),[1],B (a compound having 3 or more and less than 10 is denoted as B)
same,NRAS/KRAS (ratio of KD value with respect to NRAS to KD value with respect to KRAS),[2],A (a compound having 10 or more and less than 20 is denoted as A)
CCC[C@H]1C(=O)N[C@@H](C2CCCCC2)C(=O)N(C)CC(=O)N(C)[C@H]2C/C=C\CCN(C2=O)[C@@H](Cc2ccc(C)cc2)C(=O)N(C)CC(=O)N[C@@H](CCc2ccc(C(F)(F)F)c(Cl)c2)C(=O)N2C[C@H](OCC)C[C@H]2C(=O)NC2(CC(C)(C)C2)C(=O)N(C)[C@@H](CC(C)C)C(=O)N(C)[C@H](C(=O)N(C)C)CC(=O)N1C [PP3021],HRAS/KRAS (ratio of KD value with respect to GDP-bound HRAS wild-type protein to KD value with respect to KRAS),"[1]; KD ratio HRAS/KRAS, GDP-bound wild-type proteins",A (a compound having 10 or more and less than 20 is denoted as A)
same,NRAS/KRAS (ratio of KD value with respect to GDP-bound NRAS wild-type protein to KD value with respect to KRAS),"[2]; KD ratio NRAS/KRAS, GDP-bound wild-type proteins",AA (a compound having 20 or more is denoted as AA)
CCOC[C@H]1C(=O)N[C@@H]([C@@H](C)CC)C(=O)N(C2CC2)CC(=O)N(C)[C@H]2C/C=C\CCN(C2=O)[C@@H](CC2CCCCC2)C(=O)N(C)CC(=O)N[C@@H](CCc2ccc(C(F)(F)F)c(OC)c2)C(=O)N2C[C@@H](C)C[C@H]2C(=O)N(C)C2(CCC2)C(=O)N(C)[C@@H](C2CCCC2)C(=O)N(C)[C@H](C(=O)N(C)C)CC(=O)N1C [PP2373],HRAS/KRAS (ratio of KD value with respect to HRAS to KD value with respect to KRAS),[1],A (a compound having 10 or more and less than 20 is denoted as A)
same,NRAS/KRAS (ratio of KD value with respect to NRAS to KD value with respect to KRAS),[2],A (a compound having 10 or more and less than 20 is denoted as A)
CC[C@H](C)[C@@H]1NC(=O)[C@H](CC(C)C)N(C)C(=O)C[C@@H](C(=O)N2CCOCC2)N(C)C(=O)[C@H](C2CCCC2)N(C)C(=O)C2(CCCC2)NC(=O)[C@@H]2CCCN2C(=O)[C@H](CCc2ccc(C(F)(F)F)c(Cl)c2)NC(=O)CN(C)C(=O)[C@H](Cc2ccc(C)cc2)N(CC2CCCC2)C(=O)CN(C)C(=O)CN(C)C1=O [PP0096] ([NMeL]I[Sar][Sar][X29][Sar][hPhe(3-Cl-4-CF3)]P[Ac5c][NMeGly(cPent)][NMeD]-Morpholide; lactam N-11),HRAS/KRAS (ratio of KD for GDP-bound HRAS wild-type to KD for KRAS),[1]; KD ratio HRAS/KRAS,C (A compound having a KD ratio of 0.1 or more and less than 3 is denoted as C)
same,NRAS/KRAS (ratio of KD for GDP-bound NRAS wild-type to KD for KRAS),[2]; KD ratio NRAS/KRAS,C (A compound having a KD ratio of 0.1 or more and less than 3 is denoted as C)
CCO[C@@H]1C[C@H]2C(=O)NC3(CC(C)(C)C3)C(=O)N(C)[C@@H](C(CC)CC)C(=O)N(C)[C@H](C(=O)N(C)C)CC(=O)N(C)[C@@H](CC(C)C)C(=O)N[C@@H]([C@@H](C)CC)C(=O)N(C)CC(=O)N(C)[C@H]3C/C=C\CCN(C3=O)[C@@H](Cc3ccc(C)cc3)C(=O)N(C)CC(=O)N[C@@H](CCc3ccc(C(F)(F)F)c(OC)c3)C(=O)N2C1 [PP2168],HRAS/KRAS (ratio of KD value with respect to HRAS to KD value with respect to KRAS),[1],A (a compound having 10 or more and less than 20 is denoted as A)
same,NRAS/KRAS (ratio of KD value with respect to NRAS to KD value with respect to KRAS),[2],A (a compound having 10 or more and less than 20 is denoted as A)
